According to patent publication US7838498B2, “Benzylic glycoside derivatives and methods of use” (Theracos, Inc., priority 2007, dated 2010):

What was measured:
human SGLT1 = target: T1, human SGLT1 (Homo sapiens, UniProt P13866); assay: Methyl-α-D-[U-14C]glucopyranoside uptake assay, COS-7 cells expressing human SGLT1; assay type: cell-based; settings: COS-7 cells expressing human SGLT1, 2 h incubation
T1 construct: Full-length human SGLT1 cDNA on pDream2.1 expression vector was obtained from GenScript Corporation; host or cells: COS-7 cells (American Type Culture Collection)
T1 sequence (P13866 1-664): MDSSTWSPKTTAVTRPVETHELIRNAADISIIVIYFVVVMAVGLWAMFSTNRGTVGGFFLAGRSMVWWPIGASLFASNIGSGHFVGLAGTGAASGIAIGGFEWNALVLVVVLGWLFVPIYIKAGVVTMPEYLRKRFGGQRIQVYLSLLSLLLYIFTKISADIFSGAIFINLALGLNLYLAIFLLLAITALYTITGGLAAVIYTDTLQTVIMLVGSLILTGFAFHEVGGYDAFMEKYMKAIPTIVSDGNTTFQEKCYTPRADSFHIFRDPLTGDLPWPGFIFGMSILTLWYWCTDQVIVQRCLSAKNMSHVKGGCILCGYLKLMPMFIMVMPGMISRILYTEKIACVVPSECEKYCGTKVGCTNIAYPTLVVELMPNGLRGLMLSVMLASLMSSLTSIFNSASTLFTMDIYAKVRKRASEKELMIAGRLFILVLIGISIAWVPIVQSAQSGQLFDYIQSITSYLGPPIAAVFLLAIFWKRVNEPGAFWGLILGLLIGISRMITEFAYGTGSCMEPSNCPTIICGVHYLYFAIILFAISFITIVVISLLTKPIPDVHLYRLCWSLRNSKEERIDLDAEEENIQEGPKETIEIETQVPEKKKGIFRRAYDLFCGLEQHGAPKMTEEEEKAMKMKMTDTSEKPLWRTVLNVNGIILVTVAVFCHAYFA
Procedure: Full-length human SGLT1 cDNA on pDream2.1 expression vector was obtained from GenScript Corporation and propagated in Escherichia coli strain DH5α using Luria-Bertani (LB) medium containing ampicillin. Plasmid DNA was isolated using the QIAGEN Plasmid Midi Kit (QIAGEN Inc.). […] Transfected cells were stored in DMEM containing 10% dimethyl sulfoxide (DMSO) at −80° C.
(§1) Cells expressing SGLT1 or SGLT2 were seeded on 96-well ScintiPlate scintillating plates (PerkinElmer, Inc.) in DMEM containing 10% FBS (1×10^5 cells per well in 100 μL medium) incubated at 37° C. under 5% CO2 for 48 h prior to the assay. Cells were washed twice with 150 μL of either sodium buffer (137 mM NaCl, 5.4 mM KCl, 2.8 mM CaCl2, 1.2 mM MgCl2, 10 mM tris(hydroxymethyl)aminomethane/N2-hydroxyethylpiperazine-N′-ethanesulfonic acid [Tris/Hepes], pH 7.2) or sodium-free buffer (137 mM N-methyl-glucamine, 5.4 mM KCl, 2.8 mM CaCl2, 1.2 mM MgCl2, 10 mM Tris/Hepes, pH 7.2). Test compound in 50 μL each of sodium or sodium-free buffer containing 40 μCi/L methyl-α-D-[U-^14C]glucopyranoside (Amersham Biosciences/GE Healthcare), either with (symbols in parentheses) or without (symbols without parentheses) 25% human serum, was added per well of a 96-well plate and incubated at 37° C. with shaking for either 2 h (SGLT1 assay) or 1.5 h (SGLT2 assay). Cells were washed twice with 150 μL of wash buffer (137 mM N-methylglucamine, 10 mM Tris/Hepes, pH 7.2) and methyl-α-D-[U-^14C]glucopyranoside uptake was quantitated using a TopCount scintillation counter (PerkinElmer, Inc.). Sodium-dependent glucopyranoside uptake was measured by subtracting the values obtained with sodium-free buffer from those obtained using sodium buffer (average of triplicate determinations).

human SGLT2 = target: T2, human SGLT2 (Homo sapiens, UniProt P31639); assay: Methyl-α-D-[U-14C]glucopyranoside uptake assay, cells stably expressing human SGLT2; assay type: cell-based; settings: HEK293.ETN cells expressing human SGLT2, 1.5 h incubation
T2 construct: A full-length cDNA clone expressing human SGLT2 (GenScript Corporation) was subcloned
T2 sequence (P31639 1-672): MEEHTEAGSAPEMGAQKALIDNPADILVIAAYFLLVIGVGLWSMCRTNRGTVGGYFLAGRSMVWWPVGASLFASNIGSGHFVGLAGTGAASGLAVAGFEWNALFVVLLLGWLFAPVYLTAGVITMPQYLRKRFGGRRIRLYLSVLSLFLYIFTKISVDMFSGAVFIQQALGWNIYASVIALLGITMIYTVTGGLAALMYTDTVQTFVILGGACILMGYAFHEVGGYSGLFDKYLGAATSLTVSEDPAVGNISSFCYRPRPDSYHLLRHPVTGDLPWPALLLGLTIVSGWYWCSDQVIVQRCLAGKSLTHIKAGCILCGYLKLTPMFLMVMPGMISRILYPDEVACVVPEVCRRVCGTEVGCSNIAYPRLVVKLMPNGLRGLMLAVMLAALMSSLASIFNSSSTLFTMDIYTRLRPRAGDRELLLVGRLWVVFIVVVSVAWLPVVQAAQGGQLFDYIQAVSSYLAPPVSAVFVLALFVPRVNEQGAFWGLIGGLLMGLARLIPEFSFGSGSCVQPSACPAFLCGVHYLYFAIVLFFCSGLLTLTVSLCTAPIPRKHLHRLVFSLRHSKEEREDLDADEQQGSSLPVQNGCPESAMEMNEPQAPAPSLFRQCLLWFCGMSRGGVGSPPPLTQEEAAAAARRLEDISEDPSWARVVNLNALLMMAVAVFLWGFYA
Excerpt: A full-length cDNA clone expressing human SGLT2 (GenScript Corporation) was subcloned into […] and Not I sites of pEAK15 expression vector. Clones harboring the cDNA inserts were identified by restriction analysis.
Plasmid containing human SGLT2 was linearized with Nsi I and purified by agarose gel electrophoresis. Using Lipofectamine 2000 Transfection Reagent (Invitrogen Corporation), DNA was transfected into HEK293.ETN cells and cultured in Dulbecco's Modified Eagle Medium (DMEM) containing 10% fetal bovine serum (FBS) at 37° C. under 5% CO2 for 24 h. Transfectants were selected in the same growth medium supplemented with puromycin (Invitrogen Corporation) for two weeks. Puromycin-resistant cells were recovered and seeded on a fresh 96-well plate (single cell per well) and cultured in the presence of puromycin until cells became confluent. Puromycin-resistant clones were evaluated for SGLT2 activity in the methyl-α-D-[U-^14C]glucopyranoside uptake assay described below.
as §1

[1] = without human serum (symbols without parentheses)
[2] = with 25% human serum (symbols in parentheses)

IC50 (human SGLT1; [1]) [nM]	IC50 (human SGLT2; [1]) [nM]	IC50 (human SGLT1; [2]) [nM]	IC50 (human SGLT2; [2]) [nM]	Compound
> 10000	< 1000	–	–	CCc1ccc(Cc2cc([C@@H]3O[C@H](CO)[C@@H](O)[C@H](O)[C@H]3O)c(COCC(C)O)cc2Cl)cc1 (stereo partly drawn) [Compound M, (2S,3R,4R,5S,6R)-2-(4-chloro-5-(4-ethylbenzyl)-2-((2-hydroxypropoxy)methyl)phenyl)-6-(hydroxymethyl)tetrahydro-2H-pyran-3,4,5-triol]
–	–	> 10000	< 1000	CC#CCOCc1cc(Cl)c(Cc2ccc(OC)cc2)cc1[C@@H]1O[C@H](CO)[C@@H](O)[C@H](O)[C@H]1O [Compound BA, (2S,3R,4R,5S,6R)-2-(2-((but-2-ynyloxy)methyl)-4-chloro-5-(4-methoxybenzyl)phenyl)-6-(hydroxymethyl)tetrahydro-2H-pyran-3,4,5-triol]
–	–	> 10000	< 1000	C=CCOCc1cc(Cl)c(Cc2ccc(OCC=C)cc2)cc1[C@@H]1O[C@H](CO)[C@@H](O)[C@H](O)[C@H]1O [Compound BB, (2S,3R,4R,5S,6R)-2-(5-(4-(allyloxy)benzyl)-2-(allyloxymethyl)-4-chlorophenyl)-6-(hydroxymethyl)tetrahydro-2H-pyran-3,4,5-triol]
> 10000	< 1000	–	–	CCc1ccc(Cc2cc([C@@H]3O[C@H](CO)[C@@H](O)[C@H](O)[C@H]3O)c(COCC(O)COC)cc2Cl)cc1 (stereo partly drawn) [Compound W, (2S,3R,4R,5S,6R)-2-(4-chloro-5-(4-ethylbenzyl)-2-((2-hydroxy-3-methoxypropoxy)methyl)phenyl)-6-(hydroxymethyl)tetrahydro-2H-pyran-3,4,5-triol]
> 10000	< 1000	–	–	CCc1ccc(Cc2cc([C@@H]3O[C@H](CO)[C@@H](O)[C@H](O)[C@H]3O)c(COCC(C)=O)cc2Cl)cc1 [Compound K, 1-(5-chloro-4-(4-ethylbenzyl)-2-((2S,3R,4R,5S,6R)-3,4,5-trihydroxy-6-(hydroxymethyl)tetrahydro-2H-pyran-2-yl)benzyloxy)propan-2-one]
> 10000	< 1000	–	–	C#CCOCCc1cc(Cl)c(Cc2ccc(OCC)cc2)cc1[C@@H]1O[C@H](CO)[C@@H](O)[C@H](O)[C@H]1O [Compound AO, (2S,3R,4R,5S,6R)-2-(4-chloro-5-(4-ethoxybenzyl)-2-(2-(prop-2-ynyloxy)ethyl)phenyl)-6-(hydroxymethyl)tetrahydro-2H-pyran-3,4,5-triol]
1000 to 10000	< 1000	–	–	CCc1ccc(Cc2cc([C@@H]3O[C@H](CO)[C@@H](O)[C@H](O)[C@H]3O)c(CCOCCO)cc2Cl)cc1 [Compound AG, (2S,3R,4R,5S,6R)-2-(4-chloro-5-(4-ethylbenzyl)-2-(2-(2-hydroxyethoxy)ethyl)phenyl)-6-(hydroxymethyl)tetrahydro-2H-pyran-3,4,5-triol]
> 10000	< 1000	–	–	CCc1ccc(Cc2cc([C@@H]3O[C@H](CO)[C@@H](O)[C@H](O)[C@H]3O)c(CCOCC(F)(F)F)cc2Cl)cc1 [Compound AK, (2S,3R,4R,5S,6R)-2-(4-chloro-5-(4-ethylbenzyl)-2-(2-(2,2,2-trifluoroethoxy)ethyl)phenyl)-6-(hydroxymethyl)tetrahydro-2H-pyran-3,4,5-triol]
> 10000	< 1000	–	–	C#CCOCc1cc(Cl)c(Cc2ccc(CC)cc2)cc1[C@@H]1O[C@H](CO)[C@@H](O)[C@H](O)[C@H]1O [Compound N, (2S,3R,4R,5S,6R)-2-(4-chloro-5-(4-ethylbenzyl)-2-((prop-2-ynyloxy)methyl)phenyl)-6-(hydroxymethyl)tetrahydro-2H-pyran-3,4,5-triol]
> 10000	< 1000	–	–	CCc1ccc(Cc2cc([C@@H]3O[C@H](CO)[C@@H](O)[C@H](O)[C@H]3O)c(COCC(F)F)cc2Cl)cc1 [Compound R, (2S,3R,4R,5S,6R)-2-(4-chloro-2-((2,2-difluoroethoxy)methyl)-5-(4-ethylbenzyl)phenyl)-6-(hydroxymethyl)tetrahydro-2H-pyran-3,4,5-triol]
> 10000	< 1000	–	–	CCc1ccc(Cc2cc([C@@H]3O[C@H](CO)[C@@H](O)[C@H](O)[C@H]3O)c(COCCOC)cc2Cl)cc1 [Compound S, (2S,3R,4R,5S,6R)-2-(4-chloro-5-(4-ethylbenzyl)-2-((2-methoxyethoxy)methyl)phenyl)-6-(hydroxymethyl)tetrahydro-2H-pyran-3,4,5-triol]
> 10000	< 1000	–	–	C=CCOCc1cc(Cl)c(Cc2ccc(OCC)cc2)cc1[C@@H]1O[C@H](CO)[C@@H](O)[C@H](O)[C@H]1O [Compound AZ, (2S,3R,4R,5S,6R)-2-(2-(allyloxymethyl)-4-chloro-5-(4-ethoxybenzyl)phenyl)-6-(hydroxymethyl)tetrahydro-2H-pyran-3,4,5-triol]
> 10000	< 1000	–	–	CC#CCOCc1cc(Cl)c(Cc2ccc(OCC)cc2)cc1[C@@H]1O[C@H](CO)[C@@H](O)[C@H](O)[C@H]1O [Compound AY, (2S,3R,4R,5S,6R)-2-(2-((but-2-ynyloxy)methyl)-4-chloro-5-(4-ethoxybenzyl)phenyl)-6-(hydroxymethyl)tetrahydro-2H-pyran-3,4,5-triol]
1000 to 10000	< 1000	–	–	CCc1ccc(Cc2cc([C@@H]3O[C@H](CO)[C@@H](O)[C@H](O)[C@H]3O)c(COCC(C)F)cc2Cl)cc1 (stereo partly drawn) [Compound T, (2S,3R,4R,5S,6R)-2-(4-chloro-5-(4-ethylbenzyl)-2-((2-fluoropropoxy)methyl)phenyl)-6-(hydroxymethyl)tetrahydro-2H-pyran-3,4,5-triol]
–	–	> 10000	< 1000	CCc1ccc(Cc2cc([C@@H]3O[C@H](CO)[C@@H](O)[C@H](O)[C@H]3O)c(OCCOC3CCCC3)cc2Cl)cc1 [Compound BG, (2S,3R,4R,5S,6R)-2-(4-chloro-2-(2-(cyclopentyloxy)ethoxy)-5-(4-ethylbenzyl)phenyl)-6-(hydroxymethyl)tetrahydro-2H-pyran-3,4,5-triol]
